Results taken from PubChem BioAssay (NCI).
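How tested: cells in 96-well plates exposed to compound for 48 hours at five concentrations. Abbreviation: GI50, concentration required for 50% inhibition of growth. TGI is the concentration that stops growth completely.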

Experiments:
Assay in all cases: NCI tumour cell line growth inhibition, 48 h
U251 CNS = system: U251 CNS
UACC-62 melanoma = system: UACC-62 melanoma
SNB-78 CNS = system: SNB-78 CNS
MOLT-4 leukemia = system: MOLT-4 leukemia
DLD-1 colon = system: DLD-1 colon
SK-OV-3 ovarian = system: SK-OV-3 ovarian
HCC-2998 colon = system: HCC-2998 colon
T-47D breast = system: T-47D breast
MDA-MB-435 = system: MDA-MB-435
NCI/ADR-RES ovarian = system: NCI/ADR-RES ovarian

Structure (SMILES) | TGI (U251 CNS) | TGI (UACC-62 melanoma) | TGI (SNB-78 CNS) | TGI (MOLT-4 leukemia) | TGI (DLD-1 colon) | TGI (SK-OV-3 ovarian) | TGI (HCC-2998 colon) | TGI (T-47D breast) | TGI (MDA-MB-435) | TGI (NCI/ADR-RES ovarian) | GI50 (U251 CNS) | GI50 (UACC-62 melanoma) | GI50 (SNB-78 CNS) | GI50 (T-47D breast) | GI50 (MOLT-4 leukemia) | GI50 (DLD-1 colon) | GI50 (SK-OV-3 ovarian) | GI50 (MDA-MB-435) | GI50 (NCI/ADR-RES ovarian) | GI50 (HCC-2998 colon)
CN(C)CCCNC(=O)c1cccc2nc3ccccc3nc12 | > 73.4 µM | > 57.8 µM | > 71.6 µM | > 100 µM | > 100 µM | > 100 µM | 50.4 µM |  |  |  |  |  |  |  |  |  |  |  |  | 
COc1ccc(/C=c2\sc3nnc(CCC(=O)Nc4cccc(C(F)(F)F)c4)n3c2=O)cc1 | > 100 µM | > 100 µM | > 100 µM | > 27.4 µM | > 100 µM | > 100 µM | > 100 µM |  |  |  |  |  |  |  |  |  |  |  |  | 
O=c1c2cc(Br)ccc2[nH]c(=S)n1-c1ccccc1 | > 100 µM | > 100 µM | > 100 µM |  | > 100 µM | > 100 µM | > 100 µM |  |  |  |  |  |  |  |  |  |  |  |  | 
CC(C)(C)c1cc(Oc2ccc(C#N)c(C#N)c2)cc(C(C)(C)C)c1 | > 100 µM | > 100 µM | > 100 µM | > 100 µM | > 100 µM | > 100 µM | > 100 µM |  |  |  |  |  |  |  |  |  |  |  |  | 
COc1cc(-c2ccc(Nc3ccccc3C(=O)O)c(OC)c2)ccc1Nc1ccccc1C(=O)O | 37.3 µM | 35.6 µM | > 100 µM | > 100 µM | > 72.8 µM | > 100 µM | > 82 µM | > 65.7 µM | 46 µM | > 100 µM |  |  |  |  |  |  |  |  |  | 
COc1ccc2oc(-c3cc4cc(OC)ccc4o3)cc2c1 |  | > 100 µM | > 100 µM | > 100 µM | > 100 µM | > 100 µM | > 100 µM |  |  |  |  |  |  |  |  |  |  |  |  | 
[CH3][Sn]([CH3])([CH3])[O]C(=O)C(O)c1ccccc1 (stereo unspecified) | > 95.3 µM | 4.49 µM | > 100 µM | > 100 µM | > 100 µM | 47.2 µM | 7.15 µM | > 100 µM | 14.8 µM | 79.5 µM | 5.84 µM | 2.11 µM | 42.7 µM | 12.7 µM | 4.86 µM | 4.93 µM | 10.1 µM | 3.52 µM | 6.39 µM | 2.32 µM
CCOc1ccc(/C=N\N2C(=O)c3ccccc3C2=O)cc1 |  | > 100 µM | > 100 µM | > 100 µM | > 100 µM |  | > 100 µM |  |  |  |  |  |  |  |  |  |  |  |  | 
CN=c1ss/c(=N\C(=S)N(C)C)n1C1CCCCC1 | > 31.6 µM | > 31.6 µM | > 31.6 µM | > 31.6 µM | > 100 µM | > 31.6 µM | > 31.6 µM |  |  |  |  |  |  |  |  |  |  |  |  | 
CC1=C(C(=O)Nc2cccc(C(F)(F)F)c2)C(c2ccccc2F)C(C(=O)Nc2cccc(C(F)(F)F)c2)=C(C)N1 | 27.1 µM |  | 65.6 µM | 8.41 µM | 20.3 µM | 25.9 µM | 7.67 µM |  |  |  |  |  |  |  |  |  |  |  |  | 
